The values below come from PMC8490825 (Frontiers in Molecular Biosciences, 2021).

One may read the IC50 as the concentration needed to halve the response being measured. The low end stands for greater potency, the high end for weaker potency.

Where a SMILES comes first, the peptide text is derived from it. Bridges are numbered along the chain shown (N, C = ends). Bounds are passed on as bounds.

Test [1] addresses hNaV1.7 (Homo sapiens, UniProt Q15858). As to the kind of experiment: cell-based. The format is cell-based.
The target in test [2] is hNaV1.1 (Homo sapiens, UniProt P35498). As to the kind of experiment: cell-based. The format is cell-based.

Chain of hNaV1.7 (Q15858 whole entry, looked up): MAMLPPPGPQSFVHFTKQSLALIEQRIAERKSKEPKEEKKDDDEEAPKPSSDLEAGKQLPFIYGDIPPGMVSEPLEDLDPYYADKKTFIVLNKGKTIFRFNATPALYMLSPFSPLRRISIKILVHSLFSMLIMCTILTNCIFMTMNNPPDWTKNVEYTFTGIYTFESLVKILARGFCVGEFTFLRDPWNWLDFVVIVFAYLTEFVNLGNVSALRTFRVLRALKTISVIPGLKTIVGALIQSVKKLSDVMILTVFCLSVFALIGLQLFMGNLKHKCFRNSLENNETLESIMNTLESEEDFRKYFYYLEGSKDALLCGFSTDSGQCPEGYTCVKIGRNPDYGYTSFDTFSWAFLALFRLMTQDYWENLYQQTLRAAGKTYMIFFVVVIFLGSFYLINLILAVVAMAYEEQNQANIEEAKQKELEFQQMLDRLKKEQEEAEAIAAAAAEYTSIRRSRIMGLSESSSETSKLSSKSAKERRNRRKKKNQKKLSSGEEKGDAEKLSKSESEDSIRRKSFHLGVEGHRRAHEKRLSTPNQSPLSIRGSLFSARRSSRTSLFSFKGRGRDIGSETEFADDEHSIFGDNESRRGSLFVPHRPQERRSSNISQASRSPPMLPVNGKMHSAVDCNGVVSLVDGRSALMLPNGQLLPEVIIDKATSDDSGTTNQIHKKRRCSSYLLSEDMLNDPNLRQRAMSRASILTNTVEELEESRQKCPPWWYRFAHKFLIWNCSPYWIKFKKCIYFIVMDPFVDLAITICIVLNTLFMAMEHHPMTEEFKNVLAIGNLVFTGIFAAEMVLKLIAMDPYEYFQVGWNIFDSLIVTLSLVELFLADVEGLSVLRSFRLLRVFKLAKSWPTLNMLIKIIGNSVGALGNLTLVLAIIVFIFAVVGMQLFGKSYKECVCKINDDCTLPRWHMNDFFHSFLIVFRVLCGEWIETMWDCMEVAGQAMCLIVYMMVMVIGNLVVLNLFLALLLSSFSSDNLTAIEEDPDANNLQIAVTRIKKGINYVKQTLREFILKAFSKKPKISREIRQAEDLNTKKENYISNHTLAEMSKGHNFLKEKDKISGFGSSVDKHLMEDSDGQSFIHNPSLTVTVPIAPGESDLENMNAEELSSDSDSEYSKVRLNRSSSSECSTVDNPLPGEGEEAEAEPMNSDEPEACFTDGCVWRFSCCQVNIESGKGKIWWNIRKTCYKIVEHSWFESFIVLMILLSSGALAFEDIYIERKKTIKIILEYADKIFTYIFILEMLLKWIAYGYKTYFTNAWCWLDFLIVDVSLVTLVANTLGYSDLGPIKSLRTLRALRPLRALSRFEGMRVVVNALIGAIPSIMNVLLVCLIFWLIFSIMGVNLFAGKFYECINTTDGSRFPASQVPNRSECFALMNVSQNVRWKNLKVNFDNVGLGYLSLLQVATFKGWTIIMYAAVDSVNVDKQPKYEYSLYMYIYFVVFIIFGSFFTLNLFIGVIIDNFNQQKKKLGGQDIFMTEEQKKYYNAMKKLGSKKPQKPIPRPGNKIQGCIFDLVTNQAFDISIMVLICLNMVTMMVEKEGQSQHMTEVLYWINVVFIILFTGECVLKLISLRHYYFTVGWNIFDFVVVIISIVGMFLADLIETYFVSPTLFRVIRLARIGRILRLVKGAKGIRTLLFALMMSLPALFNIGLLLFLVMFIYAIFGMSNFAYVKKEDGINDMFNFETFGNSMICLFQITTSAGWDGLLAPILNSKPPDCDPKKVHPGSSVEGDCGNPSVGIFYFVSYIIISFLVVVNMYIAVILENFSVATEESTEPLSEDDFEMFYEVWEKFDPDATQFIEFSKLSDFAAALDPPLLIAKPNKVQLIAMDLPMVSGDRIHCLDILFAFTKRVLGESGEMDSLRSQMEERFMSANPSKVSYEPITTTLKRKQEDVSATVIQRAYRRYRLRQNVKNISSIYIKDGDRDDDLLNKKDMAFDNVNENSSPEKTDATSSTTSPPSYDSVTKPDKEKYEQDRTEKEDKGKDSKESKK

In the case of `CSCC[C@@H]1NC(=O)CNC(=O)[C@H](CC(C)C)NC(=O)[C@@H](NC(=O)[C@H](CC(=O)O)NC(=O)[C@H](CC(=O)O)NC(=O)CN)CSSC[C@@H]2NC(=O)[C@@H]3CSSC[C@@H](C(=O)N[C@@H](CCCCN)C(=O)N[C@@H](Cc4ccc(O)cc4)C(=O)N[C@@H](CCC(N)=O)C(=O)N[C@@H](CC(C)C)C(=O)N[C@@H](Cc4c[nH]c5ccccc45)C(=O)O)NC(=O)[C@H](Cc4c[nH]c5ccccc45)NC(=O)[C@H](CCC(N)=O)NC(=O)[C@H](CC(=O)O)NC(=O)[C@H](CCCCN)NC(=O)[C@H](CCCNC(=N)N)NC(=O)[C@H](CO)NC(=O)[C@H](CSSC[C@H](NC(=O)[C@H](CO)NC(=O)[C@H](CO)NC(=O)[C@H](Cc4ccccc4)NC1=O)C(=O)N[C@@H](CC(=O)O)C(=O)N1CCC[C@H]1C(=O)N[C@@H](CC(N)=O)C(=O)N[C@@H](CC(N)=O)C(=O)N[C@@H](C)C(=O)N[C@@H](CCCCN)C(=O)N3)NC(=O)[C@H](CCCCN)NC(=O)[C@H](CCCNC(=N)N)NC(=O)[C@H](CC(N)=O)NC(=O)[C@@H]1CCCN1C2=O` [Peptide D15A] (H-GDDCLGMFSSCDPNNAKCCPNRKCSRKDQWCKYQLW-OH; disulfide 4-19, 11-24, 18-31), the IC50 in test [1] and in test [2] was over 1000 nM each time.

For the compound `CSCC[C@@H]1NC(=O)CNC(=O)[C@H](CC(C)C)NC(=O)[C@@H](NC(=O)[C@H](CC(=O)O)NC(=O)[C@H](CC(=O)O)NC(=O)CN)CSSC[C@@H]2NC(=O)[C@@H]3CSSC[C@@H](C(=O)N[C@@H](CCCCN)C(=O)N[C@@H](Cc4ccc(O)cc4)C(=O)N[C@@H](CCC(N)=O)C(=O)N[C@@H](CC(C)C)C(=O)N[C@@H](C)C(=O)O)NC(=O)[C@H](Cc4c[nH]c5ccccc45)NC(=O)[C@H](CCC(N)=O)NC(=O)[C@H](CC(=O)O)NC(=O)[C@H](CCCCN)NC(=O)[C@H](CCCNC(=N)N)NC(=O)[C@H](CO)NC(=O)[C@H](CSSC[C@H](NC(=O)[C@H](CO)NC(=O)[C@H](CO)NC(=O)[C@H](Cc4ccccc4)NC1=O)C(=O)N[C@@H](CC(=O)O)C(=O)N1CCC[C@H]1C(=O)N[C@@H](CC(N)=O)C(=O)N[C@@H](CC(N)=O)C(=O)N[C@@H](CC(=O)O)C(=O)N[C@@H](CCCCN)C(=O)N3)NC(=O)[C@H](CCCCN)NC(=O)[C@H](CCCNC(=N)N)NC(=O)[C@H](CC(N)=O)NC(=O)[C@@H]1CCCN1C2=O` [Peptide W35A] (H-GDDCLGMFSSCDPNNDKCCPNRKCSRKDQWCKYQLA-OH; disulfide 4-19, 11-24, 18-31), the IC50 in test [1] and in test [2] was over 1000 nM in each case.

With `CSCC[C@@H]1NC(=O)CNC(=O)[C@H](CC(C)C)NC(=O)[C@@H](NC(=O)[C@H](CC(=O)O)NC(=O)[C@H](CC(=O)O)NC(=O)CN)CSSC[C@@H]2NC(=O)[C@@H]3CSSC[C@@H](C(=O)N[C@@H](C)C(=O)N[C@@H](Cc4ccc(O)cc4)C(=O)N[C@@H](CCC(N)=O)C(=O)N[C@@H](CC(C)C)C(=O)N[C@@H](Cc4c[nH]c5ccccc45)C(=O)O)NC(=O)[C@H](Cc4c[nH]c5ccccc45)NC(=O)[C@H](CCC(N)=O)NC(=O)[C@H](CC(=O)O)NC(=O)[C@H](CCCCN)NC(=O)[C@H](CCCNC(=N)N)NC(=O)[C@H](CO)NC(=O)[C@H](CSSC[C@H](NC(=O)[C@H](CO)NC(=O)[C@H](CO)NC(=O)[C@H](Cc4ccccc4)NC1=O)C(=O)N[C@@H](CC(=O)O)C(=O)N1CCC[C@H]1C(=O)N[C@@H](CC(N)=O)C(=O)N[C@@H](CC(N)=O)C(=O)N[C@@H](CC(=O)O)C(=O)N[C@@H](CCCCN)C(=O)N3)NC(=O)[C@H](CCCCN)NC(=O)[C@H](CCCNC(=N)N)NC(=O)[C@H](CC(N)=O)NC(=O)[C@@H]1CCCN1C2=O` [Peptide K31A] (H-GDDCLGMFSSCDPNNDKCCPNRKCSRKDQWCAYQLW-OH; disulfide 4-19, 11-24, 18-31), in test [1], the concentration for half-maximal inhibition (IC50) was over 1000 nM and the “inhibition of NaV1.7, in words” value is on record as “loss of activity”. Besides, in test [2], the IC50 is over 1000 nM and the “inhibition of NaV1.1, in words” value is reported as “loss of activity”.

For the compound `CC(C)C[C@@H]1NC(=O)[C@@H](NC(=O)[C@H](CC(=O)O)NC(=O)[C@H](CC(=O)O)NC(=O)CN)CSSC[C@@H]2NC(=O)[C@@H]3CSSC[C@@H](C(=O)N[C@@H](CCCCN)C(=O)N[C@@H](Cc4ccc(O)cc4)C(=O)N[C@@H](CCC(N)=O)C(=O)N[C@@H](CC(C)C)C(=O)N[C@@H](Cc4c[nH]c5ccccc45)C(=O)O)NC(=O)[C@H](Cc4c[nH]c5ccccc45)NC(=O)[C@H](CCC(N)=O)NC(=O)[C@H](CC(=O)O)NC(=O)[C@H](CCCCN)NC(=O)[C@H](CCCNC(=N)N)NC(=O)[C@H](CO)NC(=O)[C@H](CSSC[C@H](NC(=O)[C@H](CO)NC(=O)[C@H](CO)NC(=O)[C@H](Cc4ccccc4)NC(=O)[C@H](C)NC(=O)CNC1=O)C(=O)N[C@@H](CC(=O)O)C(=O)N1CCC[C@H]1C(=O)N[C@@H](CC(N)=O)C(=O)N[C@@H](CC(N)=O)C(=O)N[C@@H](CC(=O)O)C(=O)N[C@@H](CCCCN)C(=O)N3)NC(=O)[C@H](CCCCN)NC(=O)[C@H](CCCNC(=N)N)NC(=O)[C@H](CC(N)=O)NC(=O)[C@@H]1CCCN1C2=O` [Peptide M6A] (H-GDDCLGAFSSCDPNNDKCCPNRKCSRKDQWCKYQLW-OH; disulfide 4-19, 11-24, 18-31), the half-maximal inhibitory concentration (IC50) in test [1] and in test [2] was over 1000 nM each time.

In the case of `CSCC[C@@H]1NC(=O)CNC(=O)[C@H](CC(C)C)NC(=O)[C@@H](NC(=O)[C@H](CC(=O)O)NC(=O)[C@H](CC(=O)O)NC(=O)CN)CSSC[C@@H]2NC(=O)[C@@H]3CSSC[C@@H](C(=O)N[C@@H](CCCCN)C(=O)N[C@@H](Cc4ccc(O)cc4)C(=O)N[C@@H](CCC(N)=O)C(=O)N[C@@H](CC(C)C)C(=O)N[C@@H](Cc4c[nH]c5ccccc45)C(=O)O)NC(=O)[C@H](Cc4c[nH]c5ccccc45)NC(=O)[C@H](CCC(N)=O)NC(=O)[C@H](CC(=O)O)NC(=O)[C@H](CCCCN)NC(=O)[C@H](CCCNC(=N)N)NC(=O)[C@H](CO)NC(=O)[C@H](CSSC[C@H](NC(=O)[C@H](CO)NC(=O)[C@H](CO)NC(=O)[C@H](Cc4ccccc4)NC1=O)C(=O)N[C@@H](CC(=O)O)C(=O)N[C@@H](C)C(=O)N[C@@H](CC(N)=O)C(=O)N[C@@H](CC(N)=O)C(=O)N[C@@H](CC(=O)O)C(=O)N[C@@H](CCCCN)C(=O)N3)NC(=O)[C@H](CCCCN)NC(=O)[C@H](CCCNC(=N)N)NC(=O)[C@H](CC(N)=O)NC(=O)[C@@H]1CCCN1C2=O` [Peptide P12A] (H-GDDCLGMFSSCDANNDKCCPNRKCSRKDQWCKYQLW-OH; disulfide 4-19, 11-24, 18-31), the IC50 in test [1] and in test [2] was over 1000 nM in each case.

With `CSCC[C@@H]1NC(=O)CNC(=O)[C@H](CC(C)C)NC(=O)[C@@H](NC(=O)[C@H](CC(=O)O)NC(=O)[C@H](CC(=O)O)NC(=O)CN)CSSC[C@@H]2NC(=O)[C@@H]3CSSC[C@@H](C(=O)N[C@@H](CCCCN)C(=O)N[C@@H](C)C(=O)N[C@@H](CCC(N)=O)C(=O)N[C@@H](CC(C)C)C(=O)N[C@@H](Cc4c[nH]c5ccccc45)C(=O)O)NC(=O)[C@H](Cc4c[nH]c5ccccc45)NC(=O)[C@H](CCC(N)=O)NC(=O)[C@H](CC(=O)O)NC(=O)[C@H](CCCCN)NC(=O)[C@H](CCCNC(=N)N)NC(=O)[C@H](CO)NC(=O)[C@H](CSSC[C@H](NC(=O)[C@H](CO)NC(=O)[C@H](CO)NC(=O)[C@H](Cc4ccccc4)NC1=O)C(=O)N[C@@H](CC(=O)O)C(=O)N1CCC[C@H]1C(=O)N[C@@H](CC(N)=O)C(=O)N[C@@H](CC(N)=O)C(=O)N[C@@H](CC(=O)O)C(=O)N[C@@H](CCCCN)C(=O)N3)NC(=O)[C@H](CCCCN)NC(=O)[C@H](CCCNC(=N)N)NC(=O)[C@H](CC(N)=O)NC(=O)[C@@H]1CCCN1C2=O` [Peptide Y32A] (H-GDDCLGMFSSCDPNNDKCCPNRKCSRKDQWCKAQLW-OH; disulfide 4-19, 11-24, 18-31), the concentration for half-maximal inhibition (IC50) in test [1] and in test [2] was over 1000 nM in each case.

For the compound `CSCC[C@@H]1NC(=O)CNC(=O)[C@H](CC(C)C)NC(=O)[C@@H](NC(=O)[C@H](CC(=O)O)NC(=O)[C@H](CC(=O)O)NC(=O)CN)CSSC[C@@H]2NC(=O)[C@@H]3CSSC[C@@H](C(=O)N[C@@H](CCCCN)C(=O)N[C@@H](Cc4ccc(O)cc4)C(=O)N[C@@H](CCC(N)=O)C(=O)N[C@@H](CC(C)C)C(=O)N[C@@H](Cc4c[nH]c5ccccc45)C(=O)O)NC(=O)[C@H](Cc4c[nH]c5ccccc45)NC(=O)[C@H](CCC(N)=O)NC(=O)[C@H](CC(=O)O)NC(=O)[C@H](CCCCN)NC(=O)[C@H](CCCNC(=N)N)NC(=O)[C@H](CO)NC(=O)[C@H](CSSC[C@H](NC(=O)[C@H](CO)NC(=O)[C@H](CO)NC(=O)[C@H](C)NC1=O)C(=O)N[C@@H](CC(=O)O)C(=O)N1CCC[C@H]1C(=O)N[C@@H](CC(N)=O)C(=O)N[C@@H](CC(N)=O)C(=O)N[C@@H](CC(=O)O)C(=O)N[C@@H](CCCCN)C(=O)N3)NC(=O)[C@H](CCCCN)NC(=O)[C@H](CCCNC(=N)N)NC(=O)[C@H](CC(N)=O)NC(=O)[C@@H]1CCCN1C2=O` [Peptide F7A] (H-GDDCLGMASSCDPNNDKCCPNRKCSRKDQWCKYQLW-OH; disulfide 4-19, 11-24, 18-31), in test [1], the IC50 was over 1000 nM and the “inhibition of NaV1.7, in words” value was “completely lost its inhibition”. Further, in test [2], the IC50 was over 1000 nM and the “inhibition of NaV1.1, in words” value is reported as “completely lost its inhibition”.

With `CSCC[C@@H]1NC(=O)CNC(=O)[C@H](CC(C)C)NC(=O)[C@@H](NC(=O)[C@H](CC(=O)O)NC(=O)[C@H](CC(=O)O)NC(=O)CN)CSSC[C@@H]2NC(=O)[C@@H]3CSSC[C@@H](C(=O)N[C@@H](CCCCN)C(=O)N[C@@H](Cc4ccc(O)cc4)C(=O)N[C@@H](CCC(N)=O)C(=O)N[C@@H](CC(C)C)C(=O)N[C@@H](Cc4c[nH]c5ccccc45)C(=O)O)NC(=O)[C@H](Cc4c[nH]c5ccccc45)NC(=O)[C@H](C)NC(=O)[C@H](CC(=O)O)NC(=O)[C@H](CCCCN)NC(=O)[C@H](CCCNC(=N)N)NC(=O)[C@H](CO)NC(=O)[C@H](CSSC[C@H](NC(=O)[C@H](CO)NC(=O)[C@H](CO)NC(=O)[C@H](Cc4ccccc4)NC1=O)C(=O)N[C@@H](CC(=O)O)C(=O)N1CCC[C@H]1C(=O)N[C@@H](CC(N)=O)C(=O)N[C@@H](CC(N)=O)C(=O)N[C@@H](CC(=O)O)C(=O)N[C@@H](CCCCN)C(=O)N3)NC(=O)[C@H](CCCCN)NC(=O)[C@H](CCCNC(=N)N)NC(=O)[C@H](CC(N)=O)NC(=O)[C@@H]1CCCN1C2=O` [Peptide Q28A] (H-GDDCLGMFSSCDPNNDKCCPNRKCSRKDAWCKYQLW-OH; disulfide 4-19, 11-24, 18-31), the IC50 in test [1] and in test [2] was over 1000 nM each time.
